The source of these data is publication PMC6844378, “Structure activity relationship studies on Amb639752: toward the identification of a common pharmacophoric structure for DGKα inhibitors” (Journal of Enzyme Inhibition and Medicinal Chemistry, 2019).

Where two headings read alike, the source gives them in different places.

For series [1], the target named is T1, DGKα (Homo sapiens, UniProt P23743). The experiment in a line: DGK assay on OST-DGKα enriched MDCK homogenates. Also noted: expressed in transfected cells; host or cells: MDCK cells (vector-infected, doxycycline-induced), crude homogenate. The class given is biochemical. Particulars: for remaining activity at 100 µM: percentage of residual DGKα activity compared to DMSO control, OST-DGKα overexpressing cell lysates, saturating DAG and ATP, read-out: Residue activity at 100 µM; for IC50: residual OST-DGKα activity at 0.1, 1.0, 10.0 and 100.0 µM. As for the experimental part:
Madin-Darby canine kidney (MDCK) cells stably expressing One Strep Tag DGKα (OST-DGKα) were prepared by infecting MDCK cells with a vector expressing an inducible OST tagged DGKα constructs. MDCK cells infected with empty vector were used as controls. MDCK cells were cultured in MEM (minimal essential medium) with 5% FBS (foetal bovine serum) and 1% antibiotic–antimycotic solution. Routinely, cells were splitted every 3–4 days with trypsin–EDTA 0.25% in standard 100 mm dishes.
Large cultures of MDCK cells for enzyme preparation were done by plating 5 × 10^6 cells in 245 mm^2 dishes. Once they reached nearly 70% confluence, cells were treated with doxycycline (1 µg/mL, two days). […] Cells were collected with a rubber scraper, homogenised by passing them through a 29 G-needle syringe 20 times and stored in aliquots at –80 °C. Presence of OST-DGKα was confirmed by western blotting and enzyme assay, transduced DGKα has an activity >100 folds the endogenous DGK.
Essentionally, the same procedure was followed as reported previously in Velnati et al.[9] In brief, DGK activity was assayed by measuring initial velocities (5 min at 27 °C) in presence of saturating substrate concentrations. Reaction conditions: 0.9 µg/µL 1,2-dioleoyl-sn-glycerol, 5 mM ATP, 0.01 µCi/µL [γ^32P]-ATP, 1 mM sodium orthovanadate, 10 mM MgCl2, 1.2 mM EGTA in 7.5 mM Hepes pH 8[12]. Reaction mixture is assembled mixing enzyme (24.5 µL of homogenate), 100× inhibitor or DMSO (0.5 µL), 5× ATP solution (10 µL of 25 mM ATP, 0.05 µCi/µL [γ^32P]-ATP (Perkin-Elmer, Milan, Italy), 5 mM sodium orthovanadate, 50 mM MgCl2), and 3.3× DAG solution (15 µL of 3 µg/µL 1,2-dioleoyl-sn-glycerol resuspended by sonication in 4 mM EGTA in 25 mM Hepes pH 8). The reaction was stopped after 5 min by adding 200 µL of freshly prepared 1 M HCl and lipid was extracted by adding 200 µL of CH3OH:CHCl3 1:1 solution and vortexing for 1 min. The two phases were separated by centrifugation (12,000 RCF for 2 min). Twenty-five microlitres of the lower organic phase was spotted in small drops on silica TLC plates. TLC was run 10 cm and dried before radioactive signals were detected by GS-250 molecular imager and was quantified by quantity one (Bio-Rad, Hercules, CA) software assuring the absence of saturated spots.
Percentage residual activity was calculated as follows: (OST-DGKα homogenate with inhibitor – vector homogenate)/(OST-DGKα homogenate with DMSO – vector homogenate)×100.
Data for the screen on OST-DGKα homogenates are the mean of duplicates. The compounds showing inhibitory activity in this assay were tested >4 times and the mean ± SEM is reported.
To calculate IC50 values of active inhibitors, the inhibitor activity was measured at least three times at 0.1, 1.0, 10.0, and 100.0 µM concentration. Data were analysed using [inhibitor] vs. normalised response parameters with least square [ordinary] curve fitting method in GraphPad PRISM 8.0 software (GraphPad Software, La Jolla, CA) mentioning 95% confidence interval and IC50 values always greater than 0.0. […] In all the experiments, the data were normalised with the controls.
Each inhibitor was tested in duplicate at least once, and DGKα activity was expressed as percentage of residual DGKα activity compared to DMSO control in the same assay. Assay uses OST-DGKα overexpressing cell lysates in presence of saturating exogenous DAG and ATP. We considered R59022 (commercially available) and the lead compound Amb63975230 as our reference molecules.
To measure the inhibitor potency, we determined the IC50 values for the compounds that resulted active when tested at 100 µM by measuring the residual OST-DGKα activity over a dose range of inhibitor concentrations (0.1 µM, 1.0 µM, 10.0 µM, and 100.0 µM).

For the next series, the system named is SAP-deficient T cells. The series is described as follows: RICD assay in SAP silenced T cells. The conditions noted are these: 10 µM, 30 min pre-treatment, OKT3 10 ng/mL, 24 h. The class given is cell-based, human. As for the experimental part:
PBL were isolated from healthy anonymous human donors by Ficoll-Paque PLUS (GE Healthcare, Chicago, IL) density gradient centrifugation, washed, and resuspended at 2 × 10^6 cell/mL in RPMI-GlutaMAX containing 10% heat inactivated FCS, 2 mM glutamine, and 100 U/mL of penicillin and streptomycin. T cells were activated with 1 µg/mL anti-CD3 (UCHT1) and anti-CD28 (clone CD28.2) antibodies. After three days, activated T cells were washed and cultured in medium additionated of 100 IU/mL rhIL-2 (Peprotech, Rocky Hill, NJ) at 1.2 × 10^6 cells/mL for ≥7 days by changing media for every 2–3 days.
Activated human PBLs were transfected with 200 pmol of siRNA oligonucleotides specific for the target protein (Stealth Select siRNA; Life Technologies, Carlsbad, CA) or a non-specific control oligo (Life Technologies, Carlsbad, CA). Transient transfections were performed using Amaxa nucleofector kits for human T cells (Lonza, Basel, Switzerland) and the Amaxa Nucleofector II or 4D systems (programmes T-20 or EI-115). Cells were cultured in IL-2 (100 IU/mL) for four days to allow target gene knockdown. Knockdown efficiency was periodically evaluated by Western blotting.
To test restimulation induced cell death, activated T cells (10^5 cells/well) were plated in triplicate in 96-well round-bottom plate and treated with anti-CD3 (clone OKT3) (10 ng/mL) in RPMI-GlutaMAX supplemented with 100 IU/mL rhIL-2 for 24 h. In these assays, inhibitors (10 µM) were added 30 min before the restimulation with OKT3. 24 h after treatment, cells were stained with 20 ng/mL propidium iodide and collected for a constant time of 30 s per sample on Attune Nxt Flow Cytometer (Thermo Fisher Scientific, Waltham, MA). Cell death is expressed as % cell loss and calculated as: % cell loss=(1−(number of viable cells in sample/number of viable cells in control)×100)
Results were expressed as mean ± standard error of the mean (SEM). We always compared controls and SAP silenced lymphocytes from the same donors as there is a large individual variability in RICD sensitivity.
To evaluate inhibitor efficacy in physiological context, we modelled XLP-1 by silencing SAP in primary peripheral blood T lymphocytes (PBLs) and restimulating them with anti-CD3 antibody (OKT3 10 ng/mL, 24 h). We pre-treated the cells with the indicated inhibitors for 30 min at a concentration of 10 µM[8].
Figure 9. DGKα inhibitors partially restores apoptosis in SAP deficient lymphocytes. […] After 4 days, the cells were restimulated with CD3 agonist OKT3 (10 ng/mL) in presence of respective inhibitor. Vehicle (DMSO) was used as control. Twenty-four hours later, the % of cell loss was evaluated by PI staining. Data are the mean ± SEM of nine independent experiments performed in triplicate.

Another series concerns 5HT2A. The arrangement: method as in PMID 27974147. Particulars: antagonistic activity on 5-HT2 receptors; cited from earlier work.
Details of series [2]: method as in PMID 26420856. Particulars: mice, rapid clearance; cited from earlier work.
The subject of another series is DGK isoforms. The arrangement: method as in PMID 10718334, PMID 23949095. The conditions noted are these: cited from earlier work.
Series [3] relates to T cells from XLP-1 patients. The arrangement: method as in PMID 26764158. Particulars: pre-treatment with inhibitor; cited from earlier work.
Series [4] concerns the target T1, DGKα. Also noted: expressed in transfected cells; host or cells: MDCK cells (vector-infected, doxycycline-induced), crude homogenate; method as in PMID 30611057. Particulars: in our assay system; cited from earlier work.
In the next series the test system is XLP-1 model. The conditions noted are these: cited from earlier work.
The target of series [5] is serotonin receptors. The conditions noted are these: read-out: IC50 as serotonin antagonist; cited from earlier work.
On the set-up of series [6]: method as in PMID 27974147. The conditions noted are these: in human; cited from earlier work.
Another series concerns the target dopaminergic receptors. The arrangement: method as in PMID 2860558. Particulars: cited from earlier work.
In series [7] the test system is serotonin receptors. The series is described as follows: Superoxide anion production: serotonin effect on PMA-induced oxidative burst in monocytes. The conditions noted are these: drugs 10 µM, 1 h; serotonin 1 µM; PMA 1 µM 30 min; human monocytes. The class given is cell-based. As for the experimental part: Human monocytes were isolated from healthy anonymous human buffy coats (provided by the Transfusion Service of Ospedale Maggiore della Carità, Novara, Italy) by the standard technique of dextran sedimentation and Histopaque (density = 1.077 g cm^3, Sigma-Aldrich, Milano, Italy) gradient centrifugation (400×g, 30 min, room temperature) and recovered by fine suction at the interface, as described previously. Purified monocytes populations were obtained by adhesion (90 min, 37 °C, 5% CO2) in serum-free RPMI 1640 medium (Sigma-Aldrich, Milano, Italy) supplemented with 2 mM glutamine and antibiotics. Cell viability (trypan blue dye exclusion) was usually >98%.
All the experiments were performed in triplicate using cells isolated from each single donor.
Monocytes (250,000 cells/well) were treated for 1 h with the indicated drugs (10 µM) with or without serotonin (1 µM). Then, cells were stimulated with phorbol 12-myristate 13-acetate (PMA; Sigma-Aldrich, Milano, Italy) 1 µM for 30 min. PMA is a well-known stimulus that induces a strong and significant respiratory burst via PKC activation. Superoxide anion production was then evaluated by the superoxide dismutase (SOD)-sensitive cytochrome C (CytC) reduction assay and expressed as nmoles CytC reduced/10^6 cells/30 min, using an extinction coefficient of 21.1 mM. To avoid interference with spectrophotometrical recordings, cells were incubated with RPMI 1640 without phenol red, antibiotics, and FBS.
To this purpose, we measured the effect of serotonin on PMA-induced oxidative burst in human monocytes. As previously shown, 1 µM serotonin reverses the oxidative burst to control values.
Figure 8. […] Results are expressed as n moles of reduced cytochrome C/10^6 cells. Data are means ± SEM of 10 independent experiments performed in triplicate.

T1 sequence (P23743 whole entry): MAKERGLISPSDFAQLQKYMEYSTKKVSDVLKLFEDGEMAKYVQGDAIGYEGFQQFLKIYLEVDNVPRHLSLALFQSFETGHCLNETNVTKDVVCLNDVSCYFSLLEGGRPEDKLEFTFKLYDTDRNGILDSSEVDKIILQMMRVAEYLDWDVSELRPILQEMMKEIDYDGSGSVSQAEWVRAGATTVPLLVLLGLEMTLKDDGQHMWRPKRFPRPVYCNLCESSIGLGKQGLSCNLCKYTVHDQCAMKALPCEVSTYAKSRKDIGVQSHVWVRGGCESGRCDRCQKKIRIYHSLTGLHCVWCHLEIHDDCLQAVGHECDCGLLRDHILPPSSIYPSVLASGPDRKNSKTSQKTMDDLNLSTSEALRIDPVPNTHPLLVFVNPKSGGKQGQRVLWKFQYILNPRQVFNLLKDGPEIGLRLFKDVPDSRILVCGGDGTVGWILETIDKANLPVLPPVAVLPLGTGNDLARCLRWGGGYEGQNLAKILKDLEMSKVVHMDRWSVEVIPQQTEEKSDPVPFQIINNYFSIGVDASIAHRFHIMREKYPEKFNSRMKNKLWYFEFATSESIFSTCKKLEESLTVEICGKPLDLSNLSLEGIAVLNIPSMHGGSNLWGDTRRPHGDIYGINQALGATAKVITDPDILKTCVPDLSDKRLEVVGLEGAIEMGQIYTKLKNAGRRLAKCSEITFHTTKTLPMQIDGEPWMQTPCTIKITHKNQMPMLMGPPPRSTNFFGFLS

Regarding `Cc1ccc2c(C(=O)CN3CCN(C(=O)c4cccs4)CC3)c(C)[nH]c2c1` [Compound 14, 1-(2,6-Dimethyl-1H-indol-3-yl)-2-(4-(thiophene-2-carbonyl)piperazin-1-yl)ethan-1-one], the remaining activity at 100 µM at DGKα [1] (100 µM) is 6%. At DGKα [1], half-maximal inhibition (IC50) was put at 3000 nM. Moreover, the “effect on RICD in control siRNA-transfected cells” value in the series on SAP-deficient T cells is “slightly reducing”.

In the case of `O=c1c2ccccc2[nH]c(=S)n1CCN1CCC(=C(c2ccc(F)cc2)c2ccc(F)cc2)CC1` [Compound R59949, 3-[2-(4-[bis-(4-fluorophenyl)methylene]-1-piperidinyl)ethyl]-2,3-dihydro-2-thioxo-4(1h)quinazolinone], the remaining activity at 100 µM on DGKα [1] (100 µM) amounted to 28%. Further, the IC50 (usually the concentration that gives 50% inhibition) in the series with 5HT2A is 9.2 nM; at DGKα [4], 11000 nM. In series [2], the t1/2 is around 2 h. In the series on DGK isoforms, the DGK isoforms targeted entry is “type I and II (γ, δ e κ)”. The “rescue of defective RICD in T cells from XLP-1 patients” value in [3] is listed as “rescued”.

On to `Cc1nc2sccn2c(=O)c1CCN1CCC(=C(c2ccccc2)c2ccc(F)cc2)CC1` [Compound R59022], for which the inhibition – broadly, the relative decrease from the control value, in per cent – at 100 µM against DGKα [1] (100 µM) turned out to be 73%. Besides, the remaining activity at 100 µM on DGKα [1] (100 µM) turned out to be 27%. Further, the 50% inhibitory concentration (IC50) was 15200 ± 5800 nM at DGKα [1] and 2.2 nM in the series on 5HT2A. Moreover, the t1/2 in series [2] is around 2 h. In addition, the DGK isoforms targeted result with DGK isoforms is “type III and V (ε e θ)”. Further, in [3], the “rescue of defective RICD in T cells from XLP-1 patients” value is “rescued”. Also, the “effect in an in vivo model of XLP-1” value with XLP-1 model was “beneficial effects”.

`Cc1nc2sccn2c(=O)c1CCN1CCC(=C(c2ccc(F)cc2)c2ccc(F)cc2)CC1` [ritanserin]: the concentration for half-maximal inhibition (IC50) on serotonin receptors [5] is 0.9 nM; on dopaminergic receptors it was 69 nM; at DGKα [4] it was 17000 nM. For the same compound, the t1/2 in series [6] is 40 h. For the same compound, in the series on serotonin receptors [7], the “effect on serotonin action on PMA-induced oxidative burst” value is on record as “impaired serotonin action”.

For the compound `O=C(c1ccc(F)cc1)C1CCN(CCn2c(=O)[nH]c3ccccc3c2=O)CC1` [ketanserin, reference compound], the “rescue of RICD (apoptosis) in SAP-deficient T cells” value in the series with SAP-deficient T cells (SAP siRNA) was “inactive”. In addition, in the series on serotonin receptors [7], the “effect on serotonin action on PMA-induced oxidative burst” value is reported as “impaired serotonin action”.
